Assay results published in the kinase profiling compilation of Christmann-Franck et al. (2016).

Experiments:
Experiment in all cases: radiometric filter-binding kinase assay, Kinase HotSpot
Conditions in all cases: compound 0.5 µM; ATP 10 µM
ABL2 (human) = ABL2 (human) (UniProt P42684)
ACVR1B (human) = ACVR1B (human) (UniProt P36896)
BLK (human) = BLK (human) (UniProt P51451)
CAMK2B (human) = CAMK2B (human) (UniProt Q13554)
CAMKK1 (human) = CAMKK1 (human) (UniProt Q8N5S9)
CAMKK2 (human) = CAMKK2 (human) (UniProt Q96RR4)
CDK1 CCNA2 (human) = CDK1 CCNA2 (human) (UniProt P06493+P20248)
CDK4 CCND1 (human) = CDK4 CCND1 (human) (UniProt P24385+P11802)
CDK5 CDK5R1 p35 (human) = CDK5 CDK5R1 p35 (human) (UniProt Q00535+Q15078)
CSF1R (human) = CSF1R (human) (UniProt P07333)
DYRK1B (human) = DYRK1B (human) (UniProt Q9Y463)
DYRK3 (human) = DYRK3 (human) (UniProt O43781)
EPHA2 (human) = EPHA2 (human) (UniProt P29317)
EPHA5 (human) = EPHA5 (human) (UniProt P54756)
FGFR2 (human) = FGFR2 (human) (UniProt P21802)
[1] = tested on: FLT4 (human), P35916 [Q890H]
GRK4 (human) = GRK4 (human) (UniProt P32298)
HIPK4 (human) = HIPK4 (human) (UniProt Q8NE63)
[2] = biological target: JAK1 JH1 catalytic (human) (UniProt P23458)
KDR (human) = KDR (human) (UniProt P35968)
MAP3K14 (human) = MAP3K14 (human) (UniProt Q99558)
MAP4K5 (human) = MAP4K5 (human) (UniProt Q9Y4K4)
MAP4K5 (human), sequence (Q9Y4K4 whole entry, looked up): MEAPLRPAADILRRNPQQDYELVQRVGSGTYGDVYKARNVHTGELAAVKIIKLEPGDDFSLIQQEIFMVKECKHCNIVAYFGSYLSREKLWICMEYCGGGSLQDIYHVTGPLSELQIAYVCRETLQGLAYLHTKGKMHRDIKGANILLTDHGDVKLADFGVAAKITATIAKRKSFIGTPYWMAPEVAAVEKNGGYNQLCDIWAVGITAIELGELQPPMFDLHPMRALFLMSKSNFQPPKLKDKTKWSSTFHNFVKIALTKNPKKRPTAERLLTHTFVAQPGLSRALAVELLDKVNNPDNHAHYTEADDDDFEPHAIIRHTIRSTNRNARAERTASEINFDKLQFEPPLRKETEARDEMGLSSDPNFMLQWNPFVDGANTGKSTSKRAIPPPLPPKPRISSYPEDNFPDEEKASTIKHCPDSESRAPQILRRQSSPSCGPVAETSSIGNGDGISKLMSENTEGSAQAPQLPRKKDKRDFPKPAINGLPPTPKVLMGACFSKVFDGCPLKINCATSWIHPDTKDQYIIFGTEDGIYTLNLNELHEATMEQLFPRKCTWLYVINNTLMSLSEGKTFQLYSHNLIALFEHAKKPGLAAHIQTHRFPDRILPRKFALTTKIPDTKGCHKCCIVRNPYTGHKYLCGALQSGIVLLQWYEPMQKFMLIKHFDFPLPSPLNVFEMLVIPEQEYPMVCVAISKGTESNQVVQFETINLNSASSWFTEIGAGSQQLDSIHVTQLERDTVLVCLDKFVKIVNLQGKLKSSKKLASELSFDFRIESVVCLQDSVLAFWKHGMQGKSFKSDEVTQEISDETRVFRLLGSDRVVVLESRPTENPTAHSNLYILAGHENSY

MELK (human) = MELK (human) (UniProt Q14680)
MELK (human), sequence (Q14680 whole entry, looked up): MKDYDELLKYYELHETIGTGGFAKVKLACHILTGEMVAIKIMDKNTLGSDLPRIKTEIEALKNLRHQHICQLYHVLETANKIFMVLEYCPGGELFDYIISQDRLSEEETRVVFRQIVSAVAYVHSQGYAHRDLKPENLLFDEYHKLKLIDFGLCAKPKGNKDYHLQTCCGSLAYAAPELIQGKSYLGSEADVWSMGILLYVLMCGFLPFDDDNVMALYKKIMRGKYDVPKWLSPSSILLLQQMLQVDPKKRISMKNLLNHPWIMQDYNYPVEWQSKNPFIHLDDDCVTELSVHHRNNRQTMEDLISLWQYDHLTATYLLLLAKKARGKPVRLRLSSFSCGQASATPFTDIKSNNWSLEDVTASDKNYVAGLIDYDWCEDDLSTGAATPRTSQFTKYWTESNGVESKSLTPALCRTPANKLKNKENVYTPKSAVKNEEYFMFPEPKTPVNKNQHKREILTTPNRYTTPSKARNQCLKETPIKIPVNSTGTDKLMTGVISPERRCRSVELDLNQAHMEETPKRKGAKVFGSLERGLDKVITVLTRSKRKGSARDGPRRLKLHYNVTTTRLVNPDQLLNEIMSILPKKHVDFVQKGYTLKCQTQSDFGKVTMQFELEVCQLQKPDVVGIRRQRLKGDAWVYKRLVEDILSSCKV

MET (human) = MET (human) (UniProt P08581)
NUAK2 (human) = NUAK2 (human) (UniProt Q9H093)
NUAK2 (human), sequence (Q9H093 whole entry, looked up): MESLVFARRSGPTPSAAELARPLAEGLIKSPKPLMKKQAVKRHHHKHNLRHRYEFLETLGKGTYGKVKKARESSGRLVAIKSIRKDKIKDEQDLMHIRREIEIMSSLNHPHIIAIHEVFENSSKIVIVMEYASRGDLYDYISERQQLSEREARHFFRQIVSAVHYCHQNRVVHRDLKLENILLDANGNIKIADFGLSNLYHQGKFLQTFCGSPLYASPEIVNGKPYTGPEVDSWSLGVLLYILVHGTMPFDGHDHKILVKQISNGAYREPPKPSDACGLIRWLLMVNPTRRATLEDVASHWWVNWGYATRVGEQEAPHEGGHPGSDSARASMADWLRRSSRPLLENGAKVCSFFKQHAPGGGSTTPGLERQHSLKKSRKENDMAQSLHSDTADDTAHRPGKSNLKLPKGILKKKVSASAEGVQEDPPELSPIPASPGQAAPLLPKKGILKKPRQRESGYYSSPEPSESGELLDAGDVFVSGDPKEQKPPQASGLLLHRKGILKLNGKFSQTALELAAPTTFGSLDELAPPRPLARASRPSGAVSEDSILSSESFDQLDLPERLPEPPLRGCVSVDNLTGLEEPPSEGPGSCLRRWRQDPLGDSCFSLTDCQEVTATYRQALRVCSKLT

PDGFRA (human) = PDGFRA (human) (UniProt P16234)
PRKCB1 (human) = PRKCB1 (human) (UniProt P05771)
PRKCD (human) = PRKCD (human) (UniProt Q05655)
PRKCZ (human) = PRKCZ (human) (UniProt Q05513)
PRKD3 (human) = PRKD3 (human) (UniProt O94806)
PRKD3 (human), sequence (O94806 whole entry, looked up): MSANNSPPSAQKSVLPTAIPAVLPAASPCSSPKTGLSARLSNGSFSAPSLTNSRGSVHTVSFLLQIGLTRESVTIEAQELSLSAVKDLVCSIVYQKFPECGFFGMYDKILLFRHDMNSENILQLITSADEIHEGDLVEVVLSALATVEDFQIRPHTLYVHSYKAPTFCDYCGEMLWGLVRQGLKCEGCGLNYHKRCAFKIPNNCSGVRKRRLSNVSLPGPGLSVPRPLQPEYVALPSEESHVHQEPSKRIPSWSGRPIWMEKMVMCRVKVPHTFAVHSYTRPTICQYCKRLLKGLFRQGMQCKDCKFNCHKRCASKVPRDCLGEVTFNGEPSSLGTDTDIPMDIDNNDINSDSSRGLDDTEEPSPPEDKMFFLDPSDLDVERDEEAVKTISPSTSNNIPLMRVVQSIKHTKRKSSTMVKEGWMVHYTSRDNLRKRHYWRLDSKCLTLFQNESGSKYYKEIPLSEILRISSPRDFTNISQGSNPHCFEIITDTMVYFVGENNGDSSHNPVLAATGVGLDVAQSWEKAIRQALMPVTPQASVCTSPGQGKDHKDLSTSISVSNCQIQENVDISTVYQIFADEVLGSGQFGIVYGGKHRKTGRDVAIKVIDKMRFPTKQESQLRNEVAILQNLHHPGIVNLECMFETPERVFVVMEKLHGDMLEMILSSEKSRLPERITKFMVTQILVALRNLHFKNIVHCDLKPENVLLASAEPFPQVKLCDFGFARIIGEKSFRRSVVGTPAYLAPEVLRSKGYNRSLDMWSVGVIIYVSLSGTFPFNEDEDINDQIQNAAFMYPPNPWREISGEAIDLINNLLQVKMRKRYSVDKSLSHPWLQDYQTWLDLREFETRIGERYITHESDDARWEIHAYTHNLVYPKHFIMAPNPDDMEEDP

ROCK1 (human) = ROCK1 (human) (UniProt Q13464)
RPS6KA1 KD1 KD2 (human) = RPS6KA1 KD1 KD2 (human) (UniProt Q15418)
SGK2 (human) = SGK2 (human) (UniProt Q9HBY8)
SIK2 (human) = SIK2 (human) (UniProt Q9H0K1)
SLK (human) = SLK (human) (UniProt Q9H2G2)
SRMS (human) = SRMS (human) (UniProt Q9H3Y6)
STK24 (human) = STK24 (human) (UniProt Q9Y6E0)
STK24 (human), sequence (Q9Y6E0 whole entry, looked up): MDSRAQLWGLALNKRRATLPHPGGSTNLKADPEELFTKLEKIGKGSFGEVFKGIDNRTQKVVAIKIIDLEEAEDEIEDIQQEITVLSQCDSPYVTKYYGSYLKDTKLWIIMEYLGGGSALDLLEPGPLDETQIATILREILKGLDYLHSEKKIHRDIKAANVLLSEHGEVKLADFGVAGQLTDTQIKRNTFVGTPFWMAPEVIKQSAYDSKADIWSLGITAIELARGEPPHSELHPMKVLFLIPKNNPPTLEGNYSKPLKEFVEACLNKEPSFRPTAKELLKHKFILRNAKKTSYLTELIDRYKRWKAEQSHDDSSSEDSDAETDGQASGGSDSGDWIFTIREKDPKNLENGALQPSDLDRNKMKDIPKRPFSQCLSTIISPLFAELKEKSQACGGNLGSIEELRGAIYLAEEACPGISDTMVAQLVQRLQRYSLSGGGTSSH

STK25 (human) = STK25 (human) (UniProt O00506)
STK3 (human) = STK3 (human) (UniProt Q13188)
TNK2 (human) = TNK2 (human) (UniProt Q07912)
TNK2 (human), sequence (Q07912 whole entry, looked up): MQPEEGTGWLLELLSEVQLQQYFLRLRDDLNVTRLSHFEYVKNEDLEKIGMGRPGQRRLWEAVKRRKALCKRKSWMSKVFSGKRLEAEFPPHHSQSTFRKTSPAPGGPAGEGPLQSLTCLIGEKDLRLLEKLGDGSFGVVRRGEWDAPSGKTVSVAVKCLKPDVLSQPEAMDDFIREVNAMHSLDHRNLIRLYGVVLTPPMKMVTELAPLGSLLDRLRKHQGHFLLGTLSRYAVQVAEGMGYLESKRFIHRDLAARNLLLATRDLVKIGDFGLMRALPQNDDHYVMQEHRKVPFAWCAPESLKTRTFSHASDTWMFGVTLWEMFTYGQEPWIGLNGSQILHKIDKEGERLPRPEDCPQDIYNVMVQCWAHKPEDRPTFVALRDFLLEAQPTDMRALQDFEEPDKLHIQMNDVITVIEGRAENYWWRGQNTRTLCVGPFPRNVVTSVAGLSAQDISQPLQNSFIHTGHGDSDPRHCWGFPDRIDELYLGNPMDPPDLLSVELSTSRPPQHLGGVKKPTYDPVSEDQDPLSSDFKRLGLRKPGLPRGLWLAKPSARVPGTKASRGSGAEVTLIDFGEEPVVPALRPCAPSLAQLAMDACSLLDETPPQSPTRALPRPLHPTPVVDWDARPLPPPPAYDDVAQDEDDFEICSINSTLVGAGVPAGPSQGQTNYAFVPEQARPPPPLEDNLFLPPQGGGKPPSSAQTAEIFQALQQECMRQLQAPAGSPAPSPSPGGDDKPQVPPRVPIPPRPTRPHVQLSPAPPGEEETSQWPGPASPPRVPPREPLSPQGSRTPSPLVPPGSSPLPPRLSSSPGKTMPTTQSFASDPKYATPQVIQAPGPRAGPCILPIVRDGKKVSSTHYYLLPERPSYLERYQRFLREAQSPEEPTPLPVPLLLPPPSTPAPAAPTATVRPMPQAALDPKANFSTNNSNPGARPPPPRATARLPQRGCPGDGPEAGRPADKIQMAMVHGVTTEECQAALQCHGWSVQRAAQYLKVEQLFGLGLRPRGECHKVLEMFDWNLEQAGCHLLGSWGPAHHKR

[3] = biological target: TYK2 JH1 catalytic (human) (UniProt P29597)
WNK2 (human) = WNK2 (human) (UniProt Q9Y3S1)

BLK (human), sequence (P51451 whole entry, looked up): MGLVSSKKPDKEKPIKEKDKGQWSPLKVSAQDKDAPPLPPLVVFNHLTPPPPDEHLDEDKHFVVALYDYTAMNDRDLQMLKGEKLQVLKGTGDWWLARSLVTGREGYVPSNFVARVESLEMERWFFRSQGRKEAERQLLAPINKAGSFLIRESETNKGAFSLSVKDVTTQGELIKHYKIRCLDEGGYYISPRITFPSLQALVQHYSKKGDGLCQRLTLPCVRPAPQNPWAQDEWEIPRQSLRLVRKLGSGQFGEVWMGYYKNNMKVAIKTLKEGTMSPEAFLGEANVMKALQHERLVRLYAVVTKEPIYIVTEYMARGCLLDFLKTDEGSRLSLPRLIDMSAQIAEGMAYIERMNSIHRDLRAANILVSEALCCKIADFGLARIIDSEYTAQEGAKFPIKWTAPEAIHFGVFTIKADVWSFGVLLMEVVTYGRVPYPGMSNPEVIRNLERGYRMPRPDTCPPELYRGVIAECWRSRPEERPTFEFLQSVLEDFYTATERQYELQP

## COc1ccc(C(=O)Nc2sc3c(c2C(N)=O)CCCC3)cc1OC
ABL2 (human)
  residual activity: 101%
ACVR1B (human)
  residual activity: 101%
BLK (human)
  residual activity: 102%
CAMK2B (human)
  residual activity: 99.9%
CAMKK1 (human)
  residual activity: 125%
CAMKK2 (human)
  residual activity: 96.9%
CDK1 CCNA2 (human)
  residual activity: 105%
CDK4 CCND1 (human)
  residual activity: 95.9%
CDK5 CDK5R1 p35 (human)
  residual activity: 90.8%
CSF1R (human)
  residual activity: 90.2%
DYRK1B (human)
  residual activity: 104%
DYRK3 (human)
  residual activity: 98%
EPHA2 (human)
  residual activity: 102%
EPHA5 (human)
  residual activity: 104%
FGFR2 (human)
  residual activity: 100%
[1]
  residual activity: 110%
GRK4 (human)
  residual activity: 95.1%
HIPK4 (human)
  residual activity: 103%
[2]
  residual activity: 104%
KDR (human)
  residual activity: 78.2%
MAP3K14 (human)
  residual activity: 88%
MAP4K5 (human)
  residual activity: 94.3%
MELK (human)
  residual activity: 46%
MET (human)
  residual activity: 82.8%
NUAK2 (human)
  residual activity: 99.5%
PDGFRA (human)
  residual activity: 96.4%
PRKCB1 (human)
  residual activity: 91.8%
PRKCD (human)
  residual activity: 81.8%
PRKCZ (human)
  residual activity: 89.3%
PRKD3 (human)
  residual activity: 103%
ROCK1 (human)
  residual activity: 107%
RPS6KA1 KD1 KD2 (human)
  residual activity: 87%
SGK2 (human)
  residual activity: 100%
SIK2 (human)
  residual activity: 102%
SLK (human)
  residual activity: 92.5%
SRMS (human)
  residual activity: 91%
STK24 (human)
  residual activity: 93.9%
STK25 (human)
  residual activity: 91.7%
STK3 (human)
  residual activity: 99.6%
TNK2 (human)
  residual activity: 93.4%
[3]
  residual activity: 117%
WNK2 (human)
  residual activity: 100%

## NC(=O)c1cccc(-c2cc(Nc3ccc(OC(F)(F)F)cc3)ncn2)c1
ABL2 (human)
  residual activity: 106%
ACVR1B (human)
  residual activity: 103%
BLK (human)
  residual activity: 103%
CAMK2B (human)
  residual activity: 100%
CAMKK1 (human)
  residual activity: 103%
CAMKK2 (human)
  residual activity: 99.1%
CDK1 CCNA2 (human)
  residual activity: 103%
CDK4 CCND1 (human)
  residual activity: 99.8%
CDK5 CDK5R1 p35 (human)
  residual activity: 96%
CSF1R (human)
  residual activity: 94.1%
DYRK1B (human)
  residual activity: 97.9%
DYRK3 (human)
  residual activity: 99.9%
EPHA2 (human)
  residual activity: 94.9%
EPHA5 (human)
  residual activity: 103%
FGFR2 (human)
  residual activity: 95.9%
[1]
  residual activity: 98.5%
GRK4 (human)
  residual activity: 94.8%
HIPK4 (human)
  residual activity: 101%
[2]
  residual activity: 98.9%
KDR (human)
  residual activity: 99.8%
MAP3K14 (human)
  residual activity: 103%
MAP4K5 (human)
  residual activity: 97.8%
MELK (human)
  residual activity: 94.5%
MET (human)
  residual activity: 135%
NUAK2 (human)
  residual activity: 87.8%
PDGFRA (human)
  residual activity: 91.8%
PRKCB1 (human)
  residual activity: 97.4%
PRKCD (human)
  residual activity: 83.1%
PRKCZ (human)
  residual activity: 100%
PRKD3 (human)
  residual activity: 93.2%
ROCK1 (human)
  residual activity: 96.8%
RPS6KA1 KD1 KD2 (human)
  residual activity: 92.7%
SGK2 (human)
  residual activity: 116%
SIK2 (human)
  residual activity: 108%
SLK (human)
  residual activity: 98.2%
SRMS (human)
  residual activity: 93.4%
STK24 (human)
  residual activity: 89.5%
STK25 (human)
  residual activity: 94.5%
STK3 (human)
  residual activity: 93.6%
TNK2 (human)
  residual activity: 98.5%
[3]
  residual activity: 82.7%
WNK2 (human)
  residual activity: 115%

## COc1ccc2c(c1)c(C1=C(c3c[nH]c4ccccc34)C(=O)NC1=O)cn2CCCN(C)C
ABL2 (human)
  residual activity: 77.7%
ACVR1B (human)
  residual activity: 111%
BLK (human)
  residual activity: 78.8%
CAMK2B (human)
  residual activity: 89.9%
CAMKK1 (human)
  residual activity: 94.8%
CAMKK2 (human)
  residual activity: 82%
CDK1 CCNA2 (human)
  residual activity: 95.7%
CDK4 CCND1 (human)
  residual activity: 78.6%
CDK5 CDK5R1 p35 (human)
  residual activity: 81.4%
CSF1R (human)
  residual activity: 92.8%
DYRK1B (human)
  residual activity: 80%
DYRK3 (human)
  residual activity: 81%
EPHA2 (human)
  residual activity: 91.3%
EPHA5 (human)
  residual activity: 87.2%
FGFR2 (human)
  residual activity: 90.7%
[1]
  residual activity: 23.6%
GRK4 (human)
  residual activity: 92.8%
HIPK4 (human)
  residual activity: 101%
[2]
  residual activity: 100%
KDR (human)
  residual activity: 40.7%
MAP3K14 (human)
  residual activity: 79.2%
MAP4K5 (human)
  residual activity: 27.7%
MELK (human)
  residual activity: 70.7%
MET (human)
  residual activity: 85.6%
NUAK2 (human)
  residual activity: 81%
PDGFRA (human)
  residual activity: 85.2%
PRKCB1 (human)
  residual activity: 19.3%
PRKCD (human)
  residual activity: 1.67%
PRKCZ (human)
  residual activity: 78.2%
PRKD3 (human)
  residual activity: 91.9%
ROCK1 (human)
  residual activity: 93.5%
RPS6KA1 KD1 KD2 (human)
  residual activity: 16%
SGK2 (human)
  residual activity: 92.6%
SIK2 (human)
  residual activity: 103%
SLK (human)
  residual activity: 69.4%
SRMS (human)
  residual activity: 95.9%
STK24 (human)
  residual activity: 36.6%
STK25 (human)
  residual activity: 55.7%
STK3 (human)
  residual activity: 72.2%
TNK2 (human)
  residual activity: 77.9%
[3]
  residual activity: 126%
WNK2 (human)
  residual activity: 96.5%

## CN(C)c1ccc(/C=C2\C(=O)Nc3ccccc32)cc1
ABL2 (human)
  residual activity: 100%
ACVR1B (human)
  residual activity: 93.4%
BLK (human)
  residual activity: 99.2%
CAMK2B (human)
  residual activity: 108%
CAMKK1 (human)
  residual activity: 98.6%
CAMKK2 (human)
  residual activity: 100%
CDK1 CCNA2 (human)
  residual activity: 96.9%
CDK4 CCND1 (human)
  residual activity: 97.7%
CDK5 CDK5R1 p35 (human)
  residual activity: 104%
CSF1R (human)
  residual activity: 77.5%
DYRK1B (human)
  residual activity: 106%
DYRK3 (human)
  residual activity: 99.5%
EPHA2 (human)
  residual activity: 107%
EPHA5 (human)
  residual activity: 109%
FGFR2 (human)
  residual activity: 98.2%
[1]
  residual activity: 98.8%
GRK4 (human)
  residual activity: 103%
HIPK4 (human)
  residual activity: 98.3%
[2]
  residual activity: 105%
KDR (human)
  residual activity: 94.3%
MAP3K14 (human)
  residual activity: 67.7%
MAP4K5 (human)
  residual activity: 84.5%
MELK (human)
  residual activity: 89.3%
MET (human)
  residual activity: 101%
NUAK2 (human)
  residual activity: 94.3%
PDGFRA (human)
  residual activity: 79.9%
PRKCB1 (human)
  residual activity: 96.1%
PRKCD (human)
  residual activity: 95.6%
PRKCZ (human)
  residual activity: 112%
PRKD3 (human)
  residual activity: 99.2%
ROCK1 (human)
  residual activity: 98.3%
RPS6KA1 KD1 KD2 (human)
  residual activity: 78.4%
SGK2 (human)
  residual activity: 98.6%
SIK2 (human)
  residual activity: 101%
SLK (human)
  residual activity: 103%
SRMS (human)
  residual activity: 97.9%
STK24 (human)
  residual activity: 96.7%
STK25 (human)
  residual activity: 90.2%
STK3 (human)
  residual activity: 100%
TNK2 (human)
  residual activity: 101%
[3]
  residual activity: 103%
WNK2 (human)
  residual activity: 104%
